According to US7888487B2, “Pyrazole derivative, medicinal composition containing the same, medicinal use thereof and intermediate in producing the same” (Kissei Pharmaceutical Co., Ltd., priority 2002, dated 2011):

target: T1, human 1,5-anhydroglucitol/fructose/mannose transporter (human SMINT) (Homo sapiens, UniProt Q2M3M2); assay: Confirmatory test for inhibitory activity on human 1,5-anhydroglucitol/fructose/mannose transporter (inhibition assay of methyl-α-D-glucopyranoside uptake activity); assay type: cell-based; conditions: COS-7 cells transiently expressing human SMINT; uptake of 1 mM methyl-α-D-glucopyranoside (α-MG), 1 hour, 37° C.; logit plot analysis
T1 construct: expressed in transfected cells; host or cells: COS-7 cells (RIKEN CELL BANK RCB0539), transient lipofection of SMINT/pME18S-FL
T1 sequence (Q2M3M2 1-681): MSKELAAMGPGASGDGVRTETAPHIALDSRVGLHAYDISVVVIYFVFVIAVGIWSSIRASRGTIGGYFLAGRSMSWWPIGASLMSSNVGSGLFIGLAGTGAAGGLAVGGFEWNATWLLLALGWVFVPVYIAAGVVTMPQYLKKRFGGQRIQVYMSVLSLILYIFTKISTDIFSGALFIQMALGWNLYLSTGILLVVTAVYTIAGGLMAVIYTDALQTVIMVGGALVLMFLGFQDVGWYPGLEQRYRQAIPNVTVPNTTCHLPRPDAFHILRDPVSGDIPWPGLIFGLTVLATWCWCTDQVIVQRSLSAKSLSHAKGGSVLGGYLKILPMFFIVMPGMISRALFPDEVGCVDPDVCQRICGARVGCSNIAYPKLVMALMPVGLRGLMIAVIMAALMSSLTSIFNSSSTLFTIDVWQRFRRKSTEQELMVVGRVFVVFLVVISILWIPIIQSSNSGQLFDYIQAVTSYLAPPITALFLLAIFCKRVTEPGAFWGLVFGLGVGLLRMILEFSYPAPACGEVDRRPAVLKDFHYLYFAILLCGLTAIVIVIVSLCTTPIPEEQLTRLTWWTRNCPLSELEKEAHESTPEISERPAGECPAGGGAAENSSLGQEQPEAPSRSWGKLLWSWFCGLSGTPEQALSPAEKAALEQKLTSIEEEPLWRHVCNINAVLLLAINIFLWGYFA
Method: (§1) Human SMINT-carrying expression plasmid SMINT/pME18S-FL (denotation of bacteria: Escherichia coli/SMINT2010324), which was deposited with NITE Patent Microorganisms Depositary on Mar. 12, 2002, was transfected to COS-7 cells (RIKEN CELL BANK RCB0539) by lipofection method. LIPOFECTAMINE PLUS reagent (Invitrogen) was used as the lipofection reagent. A day before the lipofection, COS-7 cells were suspended in D-MEM medium (Invitrogen) at 6×10^6 cells per 1 mL, and dispensed 50 μL per well of 96-well plate. The lipofection was performed by the following methods. For each well, 0.1 μg of the plasmid was diluted with 10 μL of D-MEM, added 0.5 μL of PLUS reagent, mixed gently, and kept stand for 15 minutes to prepare Plasmid Dilute Solution. For each well, 0.5 μL of LIPOFECTAMINE reagent was diluted with 10 μL of D-MEM to prepare LIPOFECTAMINE Dilute Solution. The Plasmid Dilute Solution was mixed with an equal volume of the LIPOFECTAMINE Dilute Solution, kept stand for 15 minutes, dispensed 20 μL per well of cell culture medium, and incubated at 37° C. under 5% CO2 for 5 hours. Then D-MEM containing 16.7% fetal bovine serum (Sanko Jun-yaku) was dispensed 100 μL per well. After 2 days culture, the cells were used for the inhibition assay of methyl-α-D-glucopyranoside uptake activity.
Confirmatory Test for Inhibitory Activity on Human 1,5-anhydroglucitol/fructose/mannose Transporter
(§2) 1) Preparation of Cells Transiently Expressing Human SMINT
The cells were prepared according to the method described in 1) of Test Example 2.
2) Inhibition Assay of methyl-α-D-glucopyranoside Uptake Activity
(§3) To Uptake Buffer consisting of 140 mM sodium chloride, 2 mM potassium chloride, 1 mM calcium chloride, 1 mM magnesium chloride, 10 mM 2-[2-(2-hydroxyethyl)-1-piperazinyl]-ethanesulfonic acid, and 5 mM tris(hydroxymethyl)aminomethane (pH 7.4), was added methyl-α-D-glucopyranoside (α-MG) composed of its non-radiolabeled form and ^14C-labeled form at 1 mM as the final concentration. For measurement of basal uptake, Basal Buffer was prepared by the addition of 140 mM choline chloride instead of sodium chloride of the Uptake Buffer. In order to determine the substrate specificity among natural sugars, natural sugars were solubilized in distilled water, diluted with distilled water into appropriate concentrations, and added to the Uptake Buffer to prepare Assay Buffer. […] To the cell lysates were added 150 μL per well of MicroScint 40 (Packard), mixed well, and the radioactivity was measured in a microscintillation counter TOPCOUNT (Packard). α-MG uptake by the cells treated with each concentration of test compounds was calculated as relative activity to control group, which is set as 100% uptake after deducting the basal uptake. […]

Row | Compound | IC50 [µM]
1 | COc1ccc(Cc2c(O[C@@H]3O[C@H](CO)[C@@H](O)[C@H](O)[C@H]3O)nn(C(C)C)c2-c2ccc3c(c2)OCCO3)cc1 [Example 119] | 0.296
2 | COc1ccc(Cc2c(O[C@@H]3O[C@H](CO)[C@@H](O)[C@H](O)[C@H]3O)nn(-c3ccccc3F)c2C(C)C)cc1 [Example 99] | 0.245
3 | CC(C)c1c(Cc2ccccc2)c(O[C@@H]2O[C@H](CO)[C@@H](O)[C@H](O)[C@H]2O)nn1C(C)C [Example 87, 4-Benzyl-3-(β-D-glucopyranosyloxy)-1,5-diisopropyl-1H-pyrazole] | 0.444
4 | COc1ccc(Cc2c(O[C@@H]3O[C@H](CO)[C@@H](O)[C@H](O)[C@H]3O)nn(C(C)C)c2-c2ccc(OC)cc2)cc1 [Example 1] | 0.092

target: T2, human SMINT (Homo sapiens, UniProt Q2M3M2); assay: Confirmatory test for substrate specificity of human SMINT (inhibition assay of methyl-α-D-glucopyranoside uptake activity with natural sugars); assay type: cell-based; conditions: COS-7 cells transiently expressing human SMINT; 1 mM α-MG, 1 hour, 37° C.
T2 construct: expressed in transfected cells; host or cells: COS-7 cells (RIKEN CELL BANK RCB0539), transient lipofection of SMINT/pME18S-FL
T2 sequence (Q2M3M2 1-681): T1 sequence (Q2M3M2 1-681)
Text: Confirmatory Test for Substrate Specificity of Human SMINT
as §2
as §1, with “After 2 days culture, the cells were used for the inhibition assay of methyl-α-D-glucopyranoside uptake activity.” left out
as §3, with “concentration.” for “concentration. For measurement of basal uptake, Basal Buffer was prepared by the addition of 140 mM choline chloride instead of sodium chloride of the Uptake Buffer. In order to determine the substrate specificity among natural sugars, natural sugars were solubilized in distilled water, diluted with distilled water into appropriate concentrations, and added to the Uptake Buffer to prepare Assay Buffer.”

Row | Compound | recognition as substrate by SMINT (inhibition of α-MG uptake, FIG. 2)
5 | O=C[C@H](O)[C@@H](O)[C@@H](O)[C@H](O)CO [galactose] | not
6 | O=C(CO)[C@@H](O)[C@H](O)[C@H](O)CO [fructose] | recognizes
7 | OC[C@H]1OC[C@H](O)[C@@H](O)[C@@H]1O [1,5-anhydroglucitol] | recognizes
